Data: paper PMC10215302 (Antibiotics, 2023)
Read-outs that look alike come from different tables or passages of the source.

How the values were obtained:
[1] = tested on: S. aureus (VISA/hVISA isolates; MprF P314L strains); settings: MprF AAS P314L, cited from earlier work
[2] = tested on: S. aureus SA0422
[3] = tested on: S. aureus SA0736
[4] = tested on: S. aureus SA0077; settings: for MIC values: Table S1: SA0077 Abf (passages on antibiotic-free media)
[5] = tested on: S. aureus SA0085; settings: for MIC values: Table S1: SA0085 Abf (passages on antibiotic-free media)
[6] = tested on: S. aureus RN4220; settings: for change of MICs on deletion of SACOL1927 (yfhP): S. aureus mutant strain RN4220, allele replacement; for MIC: Table S4: RN4220
[7] = tested on: S. aureus ATCC 29213
[8] = tested on: S. aureus derivative strains
[9] = tested on: S. aureus derivative strains; format: cell-based, Staphylococcus aureus; settings: AUC of tested strain / AUC of S. aureus Mu50
[10] = SA0422, selecting agent DAP, passage 5
[11] = SA0422, selecting agent DAP, passage 20
[12] = SA0422, selecting agent DAP, passage 40
[13] = SA0422, selecting agent VAN, passage 0
[14] = SA0422, selecting agent VAN, passage 5
[15] = SA0422, selecting agent VAN, passage 20
[16] = SA0422, selecting agent VAN, passage 40
[17] = Table S4: SA0422, strain before selection
[18] = SA0736, selecting agent DAP, passage 5
[19] = SA0736, selecting agent DAP, passage 20
[20] = SA0736, selecting agent DAP, passage 40Y (yellow colonies)
[21] = SA0736, selecting agent VAN, passage 0
[22] = SA0736, selecting agent VAN, passage 20
[23] = SA0736, selecting agent VAN, passage 40
[24] = Table S1: SA0736 DAP-W (40 passages on daptomycin, white colonies)
[25] = Table S1: SA0736 DAP-Y (40 passages on daptomycin, yellow colonies)
[26] = Table S4: SA0736, strain before selection
[27] = SA0077, selecting agent DAP, passage 5
[28] = SA0077, selecting agent DAP, passage 20
[29] = SA0077, selecting agent DAP, passage 40
[30] = SA0077, selecting agent VAN, passage 0
[31] = SA0077, selecting agent VAN, passage 5
[32] = SA0077, selecting agent VAN, passage 20
[33] = SA0077, selecting agent VAN, passage 40
[34] = Table S4: SA0077, strain before selection
[35] = SA0085, selecting agent DAP, passage 5
[36] = SA0085, selecting agent DAP, passage 20
[37] = SA0085, selecting agent DAP, passage 40
[38] = SA0085, selecting agent VAN, passage 0
[39] = SA0085, selecting agent VAN, passage 5
[40] = SA0085, selecting agent VAN, passage 20
[41] = SA0085, selecting agent VAN, passage 40
[42] = Table S4: SA0085, strain before selection
[43] = Table S1: RN4220 ∆ (strain with deletion in SACOL1927)
[44] = ATCC 29213, selecting agent DAP, passage 5
[45] = ATCC 29213, selecting agent DAP, passage 20
[46] = ATCC 29213, selecting agent DAP, passage 40
[47] = ATCC 29213, selecting agent VAN, passage 0
[48] = ATCC 29213, selecting agent VAN, passage 5
[49] = ATCC 29213, selecting agent VAN, passage 20
[50] = ATCC 29213, selecting agent VAN, passage 40
[51] = Table S4: ATCC 29213, strain before selection

CCCCCCCCCC(=O)N[C@@H](Cc1c[nH]c2ccccc12)C(=O)N[C@H](CC(N)=O)C(=O)N[C@@H](CC(=O)O)C(=O)N[C@@H]1C(=O)NCC(=O)N[C@@H](CCCN)C(=O)N[C@@H](CC(=O)O)C(=O)N[C@H](C)C(=O)N[C@@H](CC(=O)O)C(=O)NCC(=O)N[C@H](CO)C(=O)N[C@@H]([C@H](C)CC(=O)O)C(=O)N[C@@H](CC(=O)c2ccccc2N)C(=O)O[C@@H]1C [DAP, daptomycin]
0.5 µg/mL: MIC ([3]; SA0736, selecting agent VAN, passage 5) | MIC [3, 22] | MIC [4, 27] | MIC [5, 35] | MIC [5, 38] | MIC values [5] | MIC [5, 42] | MIC [7, 44]
up to 32 mg/L: MIC correlated with mprF mutations ([8]; daptomycin-selected derivatives, after the 20th passage)
> 64 µg/mL: MIC values [3, 24] | MIC values [3, 25]
8 to 32 µg/mL: MIC range by the 20th passage ([8]; all strains, 20th passage of daptomycin selection)
16 µg/mL: MIC [2, 11]
no effect: effect on MIC [1]
0.25 µg/mL: MIC [2, 13] | MIC [2, 17] | MIC [3, 21] | MIC [3, 26] | MIC [4, 30] | MIC values [4] | MIC [4, 34] | MIC values ([6]; Table S1: RN4220 WT) | MIC values [6, 43] | MIC [6] | MIC [7, 48]
64 µg/mL: MIC [7, 46]
0.125 µg/mL: MIC [7, 47] | MIC [7, 51]
32 µg/mL: MIC [3, 19] | MIC [4, 29] | MIC [5, 36] | MIC [7, 45]
>64 µg/mL: MIC [2, 12] | MIC [3, 20] | MIC [5, 37]
2 µg/mL: MIC ([1]; moderate increase) | MIC [2, 16] | MIC [3, 23] | MIC [4, 31] | MIC [4, 32] | MIC [4, 33] | MIC [5, 40] | MIC [5, 41] | MIC [7, 49] | MIC [7, 50] | MICs in derivatives of all strains after selection with vancomycin ([8]; selection with vancomycin, derivatives of all strains)
did not change: change of MICs on deletion of SACOL1927 (yfhP) [6]
1 µg/mL: MIC [2, 14] | MIC [2, 15] | MIC [3, 18] | MIC [5, 39]
8 µg/mL: MIC [2, 10] | MIC [4, 28]

vancomycin
2 µg/mL: MIC [2, 11] | MIC [2, 12] | MIC [2, 14] | MIC [4, 27] | MIC [5, 36] | MIC [7, 45] | MIC [7, 49]
1 µg/mL: MIC [2, 10] | MIC [2, 13] | MIC [2, 17] | MIC [4, 30] | MIC values [4] | MIC [4, 34] | MIC [5, 35] | MIC [5, 38] | MIC values [5] | MIC [5, 42] | MIC [7, 44]
4 µg/mL: MIC [2, 15] | MIC [2, 16] | MIC [3, 19] | MIC ([3]; SA0736, selecting agent DAP, passage 40W (white colonies)) | MIC [3, 20] | MIC values [3, 24] | MIC values [3, 25] | MIC [4, 28] | MIC [4, 29] | MIC [4, 31] | MIC [5, 37] | MIC [5, 39] | MIC [5, 40] | MIC [7, 46]
0.4–1.0: PAP AUC ratio ([9]; after daptomycin selection)
0.5 µg/mL: MIC [3, 18] | MIC [3, 21] | MIC [3, 26] | MIC values ([6]; Table S1: RN4220 WT) | MIC values [6, 43] | MIC [6]
did not change: change of MICs on deletion of SACOL1927 (yfhP) [6]
0.25 µg/mL: MIC [7, 47] | MIC [7, 48] | MIC [7, 51]
decreased by one dilution: change of MICs after 10 passages in antibiotic-free media ([8]; vancomycin-selected derivatives, stability test)
4 to 8 µg/mL: MICs of derivative strains at the end of selection with vancomycin ([8]; derivative strains, end of vancomycin selection)
1.0–1.2: PAP AUC ratio ([9]; after 40 passages in vancomycin)
8 µg/mL: MIC [3, 22] | MIC [3, 23] | MIC [4, 32] | MIC [4, 33] | MIC [5, 41] | MIC [7, 50]
